Structures can show the parent of a compound that is named as a salt.
How the values were obtained:
[1] = target: T1, Jak2 (a.a. 828-1132) (Homo sapiens, UniProt O60674); test: In vitro JAK kinase assay (HTRF, phosphorylation of biotinylated peptide), JAK2; format: biochemical; conditions: 1 mM ATP; Examples 12-91; read-out: JAK2 IC50 (nM) @ 1 mM ATP
T1 construct: Jak2 (a.a. 828-1132); His tag (N); made in house; host or cells: insect cells (baculovirus)
Protocol: (§1) Compounds herein were tested for inhibitory activity of JAK targets according to the following in vitro assay described in Park et al., Analytical Biochemistry 1999, 269, 94-104. The catalytic domains of human JAK1 (a.a. 837-1142), Jak2 (a.a. 828-1132) and Jak3 (a.a. 781-1124) with an N-terminal His tag were expressed using baculovirus in insect cells and purified. The catalytic activity of JAK1, JAK2 or JAK3 was assayed by measuring the phosphorylation of a biotinylated peptide. The phosphorylated peptide was detected by homogenous time resolved fluorescence (HTRF). IC50s of compounds were measured for each kinase in the 40 microL reactions that contain the enzyme, ATP and 500 nM peptide in 50 mM Tris (pH 7.8) buffer with 100 mM NaCl, 5 mM DTT, and 0.1 mg/mL (0.01%) BSA. The ATP concentration in the reactions was 90 μM for Jak1, 30 μM for Jak2 and 3 μM for Jak3 for Km conditions. For the 1 mM IC50 measurements, ATP concentration in the reactions was 1 mM. Reactions were carried out at room temperature for 1 hr and then stopped with 20 μL 45 mM EDTA, 300 nM SA-APC, 6 nM Eu-Py20 in assay buffer (Perkin Elmer, Boston, Mass.). Binding to the Europium labeled antibody took place for 40 minutes and HTRF signal was measured on a Fusion plate reader (Perkin Elmer, Boston, Mass.). See Tables 1, 2, 3, and 4 for data related to compounds of the invention.

[2] = target: T2, human JAK1 (a.a. 837-1142) (Homo sapiens, UniProt P23458); test: In vitro JAK kinase assay (HTRF, phosphorylation of biotinylated peptide), JAK1; format: biochemical; conditions: 1 mM ATP; Examples 12-91; read-out: JAK1 IC50 (nM) @ 1 mM ATP
T2 construct: The catalytic domains of human JAK1 (a.a. 837-1142); His tag (N); made in house; host or cells: insect cells (baculovirus)
T2 sequence (P23458 849-1154): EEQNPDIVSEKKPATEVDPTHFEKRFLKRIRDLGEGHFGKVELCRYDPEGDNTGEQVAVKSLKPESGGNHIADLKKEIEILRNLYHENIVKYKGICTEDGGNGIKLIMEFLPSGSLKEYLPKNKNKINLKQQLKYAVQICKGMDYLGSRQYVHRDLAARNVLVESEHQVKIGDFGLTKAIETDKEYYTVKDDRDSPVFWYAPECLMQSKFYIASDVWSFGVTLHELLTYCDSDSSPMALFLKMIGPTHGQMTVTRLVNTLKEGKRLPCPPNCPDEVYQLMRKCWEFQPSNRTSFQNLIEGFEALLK
Protocol: as §1

T1 sequence (O60674 828-1132): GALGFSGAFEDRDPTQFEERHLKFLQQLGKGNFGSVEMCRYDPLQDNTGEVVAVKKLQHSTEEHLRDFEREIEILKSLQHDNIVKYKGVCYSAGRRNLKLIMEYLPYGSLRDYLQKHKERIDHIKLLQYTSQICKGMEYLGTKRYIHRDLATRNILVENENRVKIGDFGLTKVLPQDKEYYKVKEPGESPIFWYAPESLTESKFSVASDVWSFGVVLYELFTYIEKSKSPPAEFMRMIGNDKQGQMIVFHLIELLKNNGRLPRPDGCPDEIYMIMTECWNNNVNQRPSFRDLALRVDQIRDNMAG

Row | SMILES | IC50 [1] [nM] | IC50 [2] [nM]
1 | N#CCC(CN1CCN(C(=O)c2ccc(C#N)cn2)CC1)n1cc(-c2ncnc3[nH]ccc23)cn1 (stereo not shown) [Example 20, 6-[(4-{3-cyano-2-[4-(7H-pyrrolo[2,3-d]pyrimidin-4-yl)-1H-pyrazol-1-yl]propyl}piperazin-1-yl)carbonyl]nicotinonitrile] | > 100 | 10 to 50
2 | N#CCC(CN1CCN(C(=O)c2ccc(F)cn2)CC1)n1cc(-c2ncnc3[nH]ccc23)cn1 (stereo not shown) [Example 21, 4-{4-[(5-fluoropyridin-2-yl)carbonyl]piperazin-1-yl}-3-[4-(7H-pyrrolo[2,3-d]pyrimidin-4-yl)-1H-pyrazol-1-yl]butanenitrile trifluoroacetate Salt] | 50 to 100 | 10 to 50
3 | Cc1cc(F)ccc1NC(=O)N1CCN(CC(CC#N)n2cc(-c3ncnc4[nH]ccc34)cn2)CC1 (stereo not shown) [Example 23, 4-(2-(4-(7H-pyrrolo[2,3-d]pyrimidin-4-yl)-1H-pyrazol-1-yl)-3-cyanopropyl)-N-(4-fluoro-2-methylphenyl)piperazine-1-carboxamide] | > 100 | 10 to 50
4 | N#CCC(CN1CCN(C(=O)c2ccc(O)cc2F)CC1)n1cc(-c2ncnc3[nH]ccc23)cn1 (stereo not shown) [Example 31, 3-(4-(7H-pyrrolo[2,3-d]pyrimidin-4-yl)-1H-pyrazol-1-yl)-4-(4-(2-fluoro-4-hydroxybenzoyl)piperazin-1-yl)butanenitrile trifluoroacetate salt] | 10 to 50 | < 10
5 | N#CCC(CN1CCN(C(=O)c2cc(C(F)(F)F)ccc2F)CC1)n1cc(-c2ncnc3[nH]ccc23)cn1 (stereo not shown) [Example 32, 3-(4-(7H-pyrrolo[2,3-d]pyrimidin-4-yl)-1H-pyrazol-1-yl)-4-(4-(2-fluoro-5-(trifluoromethyl)benzoyl)piperazin-1-yl)butanenitrile] | < 10 | < 10

More lines, now with the values ahead:

Row | IC50 [1] [nM] | IC50 [2] [nM] | SMILES
6 | < 10 | < 10 | N#CCC(CN1CCN(S(=O)(=O)c2ccc3[nH]ncc3c2)CC1)n1cc(-c2ncnc3[nH]ccc23)cn1 (stereo not shown) [Example 22, 4-[4-(1H-indazol-5-ylsulfonyl)piperazin-1-yl]-3-[4-(7H-pyrrolo[2,3-d]pyrimidin-4-yl)-1H-pyrazol-1-yl]butanenitrile]
7 | < 10 | < 10 | N#CCC(CN1CCN(C(=O)c2ccc(Cl)cc2F)CC1)n1cc(-c2ncnc3[nH]ccc23)cn1 (stereo not shown) [Example 26, 3-(4-(7H-pyrrolo[2,3-d]pyrimidin-4-yl)-1H-pyrazol-1-yl)-4-(4-(4-chloro-2-fluorobenzoyl)piperazin-1-yl)butanenitrile]
8 | < 10 | < 10 | N#CCC(CN1CCN(C(=O)c2c(F)cc(Cl)cc2F)CC1)n1cc(-c2ncnc3[nH]ccc23)cn1 (stereo not shown) [Example 27, 3-(4-(7H-pyrrolo[2,3-d]pyrimidin-4-yl)-1H-pyrazol-1-yl)-4-(4-(4-chloro-2,6-difluorobenzoyl)piperazin-1-yl)butanenitrile]
9 | < 10 | < 10 | Cc1ccc(C(=O)N2CCN(CC(CC#N)n3cc(-c4ncnc5[nH]ccc45)cn3)CC2)c(F)c1 (stereo not shown) [Example 28, 3-(4-(7H-pyrrolo[2,3-d]pyrimidin-4-yl)-1H-pyrazol-1-yl)-4-(4-(2-fluoro-4-methylbenzoyl)piperazin-1-yl)butanenitrile]
10 | < 10 | < 10 | N#CCC(CN1CCN(C(=O)c2c(F)cc(F)cc2F)CC1)n1cc(-c2ncnc3[nH]ccc23)cn1 (stereo not shown) [Example 29, 3-(4-(7H-pyrrolo[2,3-d]pyrimidin-4-yl)-1H-pyrazol-1-yl)-4-(4-(2,4,6-trifluorobenzoyl)piperazin-1-yl)butanenitrile]
11 | < 10 | < 10 | N#CCC(CN1CCN(C(=O)c2ccc(F)cc2F)CC1)n1cc(-c2ncnc3[nH]ccc23)cn1 (stereo not shown) [Example 30, 3-(4-(7H-pyrrolo[2,3-d]pyrimidin-4-yl)-1H-pyrazol-1-yl)-4-(4-(2,4-difluorobenzoyl)piperazin-1-yl)butanenitrile]
